Read-outs that look alike come from different tables or passages of the source.

Our source for the CC50 and EC50 values is US20230091047A1 (priority 2019, published 2023).

The nature of one data set: in vitro. Format: cell-based. The note with it: human, HepG2 or HepG2.117 cells, mean value. A digest of the protocol: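 Luminescent ATP quantitation served as the viability endpoint following a 3- or 4-day incubation with test compounds.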
The subject of data set [1] is HBV (HepG2.117 cell line, inducibly HBV producing). In words: Anti-HBV activity: intracellular HBV DNA by real-time PCR in HepG2.117 cells after 3 days of treatment. The format is cell-based, hepatitis B virus. Summed up: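 Inducible HBV-producing HepG2.117 line (Tet-off); 3-day exposure to serially diluted compound after induction; real-time PCR of intracellular viral DNA.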
(In general: Real-time PCR tracks product formation cycle by cycle.)

[2] abbreviates: ATPlite, 3-days incubation (not marked with *).
Setting [3] is: Hepatitis B virus, HepG2.117, 72 h, HepG2.117 cells, intracellular HBV DNA by real-time PCR, 3 days of treatment, mean value; read-out: EC50 (μM, mean value).
Where [4] appears, read: 3-days incubation (unmarked values), ATPlite.
Where [5] appears, read: Hepatitis B virus, HepG2.117, 72 h, HepG2.117 cells, 3 days of treatment, intracellular HBV DNA by real-time PCR; mean value; read-out: EC50 (μM, mean value).

What is called CC50 is the concentration that lowers cell viability or growth by half. Low values mean harm at low concentration, high ones better tolerance by the cells. What is called EC50 is the concentration giving half of the maximal effect. In “in vitro” (setting [2]), `CCN(Cc1ccc2c(c1)OCO2)c1nc2c(c(=O)n1-c1ccc(C(=O)NC)cc1)C[C@@H](C)N(C(=O)c1ccc(Cl)c(Cl)c1)C2` [Compound C605] had a CC50 at 3 days greater than 50 µM. In addition, the EC50 in data set [1] (setting [3]) was determined as 0.15 µM.

With `CC(C)Nc1nc2c(c(=O)n1-c1ccc(S(=O)(=O)NC(C)C)cc1)C[C@@H](C)N(C(=O)c1ccc(Cl)c(Cl)c1)C2` [Compound C388], the CC50 at 3 days in the data set “in vitro” (setting [2]) was greater than 50 µM. In addition, in data set [1] (setting [3]), the EC50 was determined as 0.62 µM.

`CNC(=O)c1ccc(-n2c(N(C)Cc3cnc4ccc(Cl)cn34)nc3c(c2=O)C[C@@H](C)N(C(=O)c2ccc(Cl)c(Cl)c2)C3)cc1` [Compound C562] came in with a CC50 at 3 days in the data set “in vitro” (setting [2]) of 26.8 µM. The concentration for a half-maximal effect (EC50) in data set [1] (setting [3]) turned out to be 2.87 µM.

With `CC(C)Nc1nc2c(c(=O)n1-c1ccc(S(C)(=O)=O)cc1)C(C)CN(C(=O)c1ccc(Cl)c(Cl)c1)C2` (centres unmarked) [Compound C154, 7-(3,4-dichlorobenzoyl)-3-[4-(methanesulfonyl)phenyl]-5-methyl-2-[(propan-2-yl)amino]-5,6,7,8-tetrahydropyrido[3,4-d]pyrimidin-4(3H)-one], the CC50 at 3 days in the data set “in vitro” (setting [4]) was greater than 50 µM. In data set [1] (setting [5]), the EC50 was determined as 0.52 µM.

In the data set “in vitro” (setting [4]), `CC(C)Nc1nc2c(c(=O)n1-c1ccc(-c3n[nH]c(Br)n3)cc1)C[C@@H](C)N(C(=O)c1ccc(Cl)c(Cl)c1)C2` [Compound C249, (6R)-3-[4-(5-bromo-1H-1,2,4-triazol-3-yl)phenyl]-7-(3,4-dichlorobenzoyl)-6-methyl-2-[(propan-2-yl)amino]-5,6,7,8-tetrahydropyrido[3,4-d]pyrimidin-4(3H)-one] showed a CC50 at 3 days greater than 50 µM. Besides, the EC50 in data set [1] (setting [5]) was 0.49 µM.

Take `CNC(=O)c1ccc(-n2c(NC(C)C)nc3c(c2=O)C[C@@H](C)N(C(=O)c2ccc(Cl)c(Cl)c2)C3)c(C(F)(F)F)c1` (atropisomer, axis not shown) [Compound C340a, 4-[(6R)-7-(3,4-dichlorobenzoyl)-6-methyl-4-oxo-2-[(propan-2-yl)amino]-5,6,7,8-tetrahydropyrido[3,4-d]pyrimidin-3(4H)-yl]-N-methyl-3-(trifluoromethyl)benzamide]: the CC50 at 3 days in “in vitro” (setting [4]) was determined as 23.2 µM. Moreover, the EC50 in data set [1] (HepG2.117 cells, 3 days of treatment, intracellular HBV DNA by real-time PCR; mean value; read-out: EC50 (μM, mean value)) worked out at 0.1 µM.

`CNC(=O)c1ccc(-n2c(NC(C)c3cn(C)nn3)nc3c(c2=O)C[C@@H](C)N(C(=O)c2ccc(Cl)c(Cl)c2)C3)cc1` (some centres unmarked) [Compound C489] displayed a CC50 at 3 days in “in vitro” (setting [2]) greater than 50 µM. In addition, the concentration giving a half-maximal response (EC50) in data set [1] (setting [3]) was greater than 25 µM.

Regarding `CNC(=O)C12CC(n3c(NC(C)C)nc4c(c3=O)C[C@@H](C)N(C(=O)c3ccc(Cl)c(Cl)c3)C4)(C1)C2` [Compound C261, 3-[(6R)-7-(3,4-dichlorobenzoyl)-6-methyl-4-oxo-2-[(propan-2-yl)amino]-5,6,7,8-tetrahydropyrido[3,4-d]pyrimidin-3(4H)-yl]-N-methylbicyclo[1.1.1]pentane-1-carboxamide], the CC50 at 3 days in the data set “in vitro” (setting [4]) was greater than 50 µM. The EC50 in data set [1] (setting [5]) came out at 0.34 µM.

`CC(C)Nc1nc2c(c(=O)n1-c1ccc(S(C)(=O)=O)cc1)CCN(C(=O)c1ccc3nccn3c1)C2` [Compound C359] showed a CC50 at 3 days in “in vitro” (setting [4]) greater than 50 µM. The EC50 in data set [1] (setting [5]) is greater than 50 µM.

Consider `CNC(=O)OCC[C@H](Nc1nc2c(c(=O)n1-c1ccc(C(=O)NC)cc1)C[C@@H](C)N(C(=O)c1ccc(Cl)c(Cl)c1)C2)C1CC1` (single isomer, unassigned) [Compound C257, (3*S)-3-cyclopropyl-3-({(6R)-7-(3,4-dichlorobenzoyl)-6-methyl-3-[4-(methylcarbamoyl)phenyl]-4-oxo-3,4,5,6,7,8-hexahydropyrido[3,4-d]pyrimidin-2-yl}amino)propyl methylcarbamate], for which the CC50 at 3 days in “in vitro” (setting [4]) is greater than 50 µM. Further, in data set [1] (setting [5]), the EC50 is 0.84 µM.

In “in vitro” (setting [4]), `CC(C)Nc1nc2c(c(=O)n1-c1ccc(S(C)(=O)=O)cc1)[C@H](C)CN(C(=O)c1ccc(Cl)c(Cl)c1)C2` (single isomer, unassigned) [Compound C154B, (*S)-7-(3,4-dichlorobenzoyl)-2-(isopropylamino)-5-methyl-3-(4-(methylsulfonyl)-phenyl)-5,6,7,8-tetrahydropyrido[3,4-d]pyrimidin-4(3H)-one] returned a CC50 at 3 days greater than 50 µM. In addition, the EC50 in data set [1] (setting [5]) was 0.51 µM.

Take `CNC(=O)c1ccc(-n2c(N[C@@H](C)C3CCC3)nc3c(c2=O)C[C@@H](C)N(C(=O)c2ccc(Cl)c(Cl)c2)C3)cc1` (single isomer, unassigned) [Compound C406b]: the CC50 at 3 days in the data set “in vitro” (setting [2]) was determined as 24.5 µM. The EC50 in data set [1] (setting [3]) is 0.16 µM.

With `CNC(=O)c1ccc(-n2c(N[C@@H](C)c3cnccn3)nc3c(c2=O)C[C@@H](C)N(C(=O)c2ccc(Cl)c(C(F)(F)F)c2)C3)cc1` (single isomer, unassigned) [Compound C665b], in “in vitro” (setting [2]), the 50% cytotoxic concentration (CC50) at 3 days was greater than 50 µM. The EC50 in data set [1] (setting [3]) came to 0.65 µM.

In turn, `CNC(=O)c1ccc(-n2c(N[C@@H]3CCO[C@H]3c3ccccc3)nc3c(c2=O)C[C@@H](C)N(C(=O)c2ccc(Cl)c(Cl)c2)C3)cc1` [Compound C466] had a CC50 at 3 days in “in vitro” (setting [2]) of 31.5 µM. Further, in data set [1] (setting [3]), the EC50 stood at 1.43 µM.

`CNC(=O)c1ccc(-n2c(NC(C)C)nc3c(c2=O)C[C@@H](C)N(C(=O)c2cc(F)c(C(F)(F)F)c(F)c2)C3)cc1` [Compound C476] came in with a CC50 at 3 days in the data set “in vitro” (setting [2]) greater than 50 µM. In addition, the EC50 in data set [1] (setting [3]) is 0.12 µM.

As for `CC(C)Nc1nc2c(c(=O)n1-c1ccc(-c3nccn3C)cc1Cl)C[C@@H](C)N(C(=O)c1ccc(Cl)c(Cl)c1)C2` [Compound C313, (6R)-3-[2-chloro-4-(1-methyl-1H-imidazol-2-yl)phenyl]-7-(3,4-dichlorobenzoyl)-6-methyl-2-[(propan-2-yl)amino]-5,6,7,8-tetrahydropyrido[3,4-d]pyrimidin-4(3H)-one], the CC50 at 3 days in the data set “in vitro” (setting [4]) came to 24.4 µM. The EC50 in data set [1] (setting [5]) is 0.12 µM.

Molecule `CC(C)NC(=O)c1cnc(-n2c(NC(C)C)nc3c(c2=O)C[C@@H](C)N(C(=O)c2ccc(Cl)c(C(F)(F)F)c2)C3)cn1` [Compound C694] yielded a CC50 at 3 days in “in vitro” (3-days incubation (unmarked values), ATPlite viability) greater than 50 µM. For the same molecule, in data set [1] (setting [5]), the EC50 came out at 0.05 µM.

For the molecule `COc1ccc(CN(CCO)c2nc3c(c(=O)[nH]2)CCN(C(=O)c2ccc(Cl)c(Cl)c2)C3)cc1` [Compound C91, 7-(3,4-dichlorobenzoyl)-2-{(2-hydroxyethyl)[(4-methoxyphenyl)methyl]amino}-5,6,7,8-tetrahydropyrido[3,4-d]pyrimidin-4(3H)-one], the CC50 at 3 days in “in vitro” (setting [4]) stood at 22.2 µM. In data set [1] (setting [5]), the EC50 is 8.92 µM.

In the case of `CNC(=O)c1ccc(-n2c(NC(C)C)nc3c(c2=O)C[C@@H](C)N(C(=O)c2ccc4[nH]c(=O)n(C)c4c2)C3)cc1` [Compound C509], the cytotoxic concentration (CC50) at 3 days in the data set “in vitro” (setting [2]) was greater than 50 µM. The EC50 in data set [1] (setting [3]) is greater than 25 µM.

In “in vitro” (setting [4]), `COc1ccc(CNc2nc3c(c(=O)n2-c2cccc(C(=O)O)c2)CCN(C(=O)c2ccc(Cl)c(Cl)c2)C3)cc1` [Compound C75, 3-[7-(3,4-dichlorobenzoyl)-2-{[(4-methoxyphenyl)methyl]amino}-4-oxo-5,6,7,8-tetrahydropyrido[3,4-d]pyrimidin-3(4H)-yl]benzoic acid] yielded a CC50 at 3 days greater than 50 µM. Also, in data set [1] (setting [5]), the EC50 was greater than 50 µM.

Consider `CNC(=O)c1ccc(-n2c(N[C@H](C)c3ccc4[nH]ccc4c3)nc3c(c2=O)C[C@@H](C)N(C(=O)c2ccc(Cl)c(Cl)c2)C3)cc1` (single isomer, unassigned) [Compound C449a], for which, in the data set “in vitro” (setting [2]), the CC50 at 3 days was greater than 50 µM. Also, in data set [1] (setting [3]), the 50% effective concentration (EC50) was 0.04 µM.

Regarding `CC(C)Nc1nc2c(c(=O)n1-c1ccc3c(c1)CC(=O)N3)C[C@@H](C)N(C(=O)c1ccc(Cl)c(Cl)c1)C2` [Compound C206, (6R)-7-(3,4-dichlorobenzoyl)-6-methyl-3-(2-oxo-2,3-dihydro-1H-indol-5-yl)-2-[(propan-2-yl)amino]-5,6,7,8-tetrahydropyrido[3,4-d]pyrimidin-4(3H)-one], it took 48.9 µM to reach half-maximal cytotoxicity in “in vitro” (setting [4]) (CC50 at 3 days). For the same molecule, in data set [1] (setting [5]), the EC50 is 0.16 µM.

Molecule `Cc1nnc(-c2ccc(-n3c(NC(C)C)nc4c(c3=O)C[C@@H](C)N(C(=O)c3ccc(Cl)c(Cl)c3)C4)cc2)o1` [Compound C242, (6R)-7-(3,4-dichlorobenzoyl)-6-methyl-3-[4-(5-methyl-1,3,4-oxadiazol-2-yl)phenyl]-2-[(propan-2-yl)amino]-5,6,7,8-tetrahydropyrido[3,4-d]pyrimidin-4(3H)-one] showed a CC50 at 3 days in the data set “in vitro” (setting [4]) greater than 50 µM. In addition, the EC50 in data set [1] (setting [5]) was 0.28 µM.

`CNC(=O)c1ccc(-n2c(NC(C)C)nc3c(c2=O)C[C@@H](C)N(C(=O)c2ccc(Br)cc2OC)C3)cc1` [Compound C513] showed a CC50 at 3 days in the data set “in vitro” (setting [2]) greater than 50 µM. Moreover, the EC50 in data set [1] (setting [3]) was 22.1 µM.

Turning to `CNC(=O)c1csc(-n2c(NC(C)C)nc3c(c2=O)C[C@@H](C)N(C(=O)c2ccc(Cl)c(Cl)c2)C3)n1` [Compound C379], half-maximal cytotoxicity in the data set “in vitro” (setting [2]) (CC50 at 3 days) was put at 22.1 µM. In data set [1] (setting [3]), the EC50 is 0.22 µM.

`CNC(=O)c1ccc(-n2c(N3C[C@@H](C#N)[C@H](c4ccccc4)C3)nc3c(c2=O)C[C@@H](C)N(C(=O)c2ccc(Cl)c(Cl)c2)C3)cc1` [Compound C487] came in with a CC50 at 3 days in the data set “in vitro” (setting [2]) greater than 50 µM. In addition, the EC50 in data set [1] (setting [3]) is 0.25 µM.

Take `CNC(=O)c1cc(-n2c(N[C@@H](C)c3ccc(F)cc3)nc3c(c2=O)C[C@@H](C)N(C(=O)c2ccc(Cl)c(Cl)c2)C3)[nH]n1` [Compound C432]: the CC50 at 3 days in “in vitro” (setting [2]) turned out to be 21.4 µM. Also, the EC50 in data set [1] (setting [3]) is 0.1 µM.

Consider `COc1ccccc1-n1c(NCc2ccc(F)cc2F)nc2c(c1=O)CCN(C(=O)c1ccc(Cl)c(Cl)c1)C2` [Compound C29, 7-(3,4-dichlorobenzoyl)-2-{[(2,4-difluorophenyl)methyl]amino}-3-(2-methoxyphenyl)-5,6,7,8-tetrahydropyrido[3,4-d]pyrimidin-4(3H)-one], for which it took 23.3 µM to reach half-maximal cytotoxicity in the data set “in vitro” (setting [4]) (CC50 at 3 days). In addition, the EC50 in data set [1] (setting [5]) turned out to be 7.43 µM.
